# Like-named read-outs stand apart in the source and are kept apart here.
# Experiments:
# RXRα [1] = target: T1, RXRα (Homo sapiens, UniProt P19793); assay: Gal4-hybrid reporter gene assay RXRα
# T1 sequence (P19793 227-458 limits assumed): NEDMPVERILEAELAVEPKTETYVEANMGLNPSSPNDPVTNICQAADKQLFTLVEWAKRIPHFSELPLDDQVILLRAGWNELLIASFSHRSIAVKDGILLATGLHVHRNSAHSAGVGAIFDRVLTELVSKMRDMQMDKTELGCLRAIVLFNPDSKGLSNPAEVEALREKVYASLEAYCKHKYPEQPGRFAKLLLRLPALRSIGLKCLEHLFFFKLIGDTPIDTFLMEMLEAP
# Description: (§1) HEK293T cells (German Collection of Microorganisms and Cell Culture GmbH, DSMZ) were cultured in Dulbecco’s modified Eagle’s medium (DMEM), high glucose supplemented with 10% fetal calf serum (FCS), sodium pyruvate (1 mM), penicillin (100 U/mL), and streptomycin (100 μg/mL) at 37 °C and 5% CO2 and seeded in 96-well plates (3 × 10^4 cells/well). The medium was changed to Opti-MEM without supplements, and the cells were transiently transfected with one pFA-CMV-hNR-LBD clone, pFR-Luc, and pRL-SV40 using Lipofectamine LTX reagent (Invitrogen, Thermo Fisher Scientific) according to the manufacturer’s instructions. Five hours after transfection, cells were incubated with the test compounds in Opti-MEM supplemented with penicillin (100 U/mL), streptomycin (100 μg/mL), and 0.1% DMSO. Each sample was set up in duplicates and tested in at least three independent experiments. After 16 h incubation, luciferase activity was measured using the Dual-Glo Luciferase Assay System (Promega) according to the manufacturer’s protocol on a Tecan Spark luminometer (Tecan Deutschland GmbH, Crailsheim, Germany). Firefly luminescence was divided by Renilla luminescence and multiplied by 1000 resulting in relative light units (RLUs) to normalize for transfection efficiency and cell growth. Fold activation was obtained by dividing the mean RLU of the test compound by the mean^a RLU of the untreated control, and relative activation was calculated by dividing the fold activation of a test sample by the fold activation of the respective reference agonist. Antagonistic effects were evaluated by coincubation of the test compound with the respective reference ligand.
# RXRβ = details: cited from earlier work
# TLX-regulated genes = details: cited from earlier work
# human insulin promoter = details: insulin promoter assay; cited from earlier work
# HNF4α = target: T2, HNF4α (Homo sapiens, UniProt P41235); assay: Gal4-hybrid reporter gene assay HNF4α; details: 30 µM, HEK293T
# T2 sequence (P41235 147-377 limits assumed): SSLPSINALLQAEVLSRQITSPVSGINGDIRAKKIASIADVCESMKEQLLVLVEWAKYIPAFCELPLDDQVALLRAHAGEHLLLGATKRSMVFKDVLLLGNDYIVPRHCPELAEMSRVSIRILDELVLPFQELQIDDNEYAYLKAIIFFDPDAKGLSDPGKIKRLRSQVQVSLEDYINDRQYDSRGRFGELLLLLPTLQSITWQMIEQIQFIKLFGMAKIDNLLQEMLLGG
# Description: as §1
# TLX [2] = details: cited from earlier work
# TLX [3] = details: read-out: EC50 TLX activation; cellular reporter gene assay; cited from earlier work
# RXRγ = details: cited from earlier work; for EC50: reporter gene assay
# RXRα [4] = details: cited from earlier work; for EC50: reporter gene assay
# TLX [5] = details: cited from earlier work; remark: listed apart in the source
# nuclear receptors = assay: Selectivity profiling in Gal4-hybrid reporter gene assay panel; format: cell-based, human; details: at active concentration
# Description: Compounds were tested at concentrations around EC90 according to the literature or at the highest nontoxic concentration (from the multiplex toxicity assay). […] (b) Selectivity profiling of NR2 modulators in a representative panel of nuclear receptors outside the NR2 family. […] Effects <5% of the respective reference ligands were considered as not relevant and omitted. Only effects are shown that are statistically significant against VP16 ctrl (Figure S3); n = 3.
# as §1
# [6] = tested on: adipocyte-derived stem cells (ASC); assay: Adipogenesis assay (ASC differentiation, Oil Red O); format: cell-based; details: 18 days
# Description: Using the small collection of NR2 modulators with sufficient reproducible on-target activity and selectivity (6, 7, 9, 11, 12, 13, 19, 21, 22, 23, 25), we next explored their application as a chemogenomics set.[161] To probe the potential of the collection to link phenotypic effects and target in a complex cellular setting, we determined compound effects on the differentiation of adipocyte-derived stem cells (ASC). Under cyclic treatment with insulin, isobutylmethylxanthine, dexamethasone and the PPARγ agonist pioglitazone,[162] these cells develop into adipocytes and accumulate large amounts of fat. However, adipogenesis is orchestrated by many transcription factors[163] and could potentially involve a role of NR2 receptors. […] There was no uniform effect of RXR modulators on fat deposition in adipocytes, possibly due to diverse off-targets of 6 and 11. […] Among TLX ligands the agonist 19 increased the amount of fat and lipid particle size, pointing to enhanced adipogenesis. The inverse TLX agonist 21 had no effect. PNR ligand effects in the adipogenesis model were generally weak.
# Differentiation experiments of ASC52telo, hTERT cells (ATCC® SCRC-4000™) were conducted according to a previously described procedure.[162] In brief, the cells were grown in DMEM high-glucose medium supplemented with 10% fetal calf serum, sodium pyruvate (1 mM), penicillin (100 U/mL), and streptomycin (100 μg/mL) at 37 °C and 5% CO2. The cells were seeded in standard culture medium at a density of 5x10^4 cells per well in 96-well plates. After adherence overnight, cells were incubated with differentiation medium, composed of standard culture medium supplemented with human insulin (10 µg/mL, #I3536, Merck KgaA, Darmstadt, Germany), dexamethasone (1 µM, #D4902, Merck KgaA, Darmstadt, Germany,), isobutylmethylxanthine (0.5 mM, #I5879, Merck KgaA, Darmstadt, Germany), DMSO (final concentration 0.1%) and the respective test compounds or pioglitazone at 1 µM. The cells were kept in a differentiation medium for 48-72 h followed by a 24 h incubation with standard culture medium supplemented with 10 µg/mL insulin only. This cycle was repeated five times accounting for a total differentiation time of 18 days. The indicated test compounds at 0.1% DMSO or 0.1% DMSO alone as vehicle control were supplemented freshly with every medium exchange. After the 18-day differentiation procedure and test compound treatment, the cells were washed with phosphate buffered saline (PBS) once and fixed with formalin (10%, stabilized with methanol, 100 µL per well, #15071, Morphisto GmbH, Offenbach am Main, Germany) for 15 min at room temperature. The fixing solution was aspirated, and the fixed cells were washed twice with 50% ethanol solution with the second wash step incubating for 15 min at room temperature to equilibrate the specimens for staining. Oil Red O (#O0625, Merck KgaA, Darmstadt, Germany) was prepared at 0.5% (w/v) in 50% ethanol (v/v) and 5% salicylic acid (w/v), filtered with grade 595 Whatman® filter paper (#311611, Schleicher & Schuell GmbH, London, U.K.) and a 0.2 µm syringe filter (FP 30/0,2 CA-S, #10462200, Schleicher & Schuell GmbH, London, U.K.). Upon equilibration, specimens were incubated with 100 µL of 0.5% Oil Red O solution for 45 min at room temperature before the staining solution was aspirated and the wells were washed once with 50% (v/v) ethanol solution and three times with ddH2O. Specimens were kept in ddH2O for subsequent analysis. For each well, two pictures were taken at a 4x magnification using a Motic®AE31E inverted microscope and a Moticam 1080 (Motic Hong Kong Ltd.). Images were corrected for skewed illumination, Oil Red O crystal precipitates were identified and removed, and the resulting processed pictures were dichromized to extract gray values from the red channel using CellProfiler (Version 4.2.6). […]
# COS-7 cells = assay: Multiplex toxicity assay; format: cell-based; details: 24 h, at active concentration
# Description: COS-7 cells (DSMZ #ACC 60) were cultured at 37°C and 5% CO2 in DMEM high glucose medium supplemented with sodium pyruvate (1 mM), penicillin (100 U/mL), streptomycin (100 µg/mL), and 10% fetal calf serum (FCS). After aspirating the wells, the cells were seeded at 1x10^5 cells per well in complete culture medium. […] Each sample was prepared in at least 4 biologically independent replicates. After incubation for 24 h, the wells were aspirated and incubated for 30 min with stimulation medium containing 1 µM NucView® 405 fluorogenic caspase-3 substrate (#10405, Biotium, Fremont, USA) and Live-or-Dye Nuc-Fix Red (0.05x, Biotium, Inc., Fremont, CA, 1691 USA) to detect apoptosis and necrosis, respectively. After incubation, a total of 6 fluorescence images per well at 10x magnification were taken to detect NucView®-positive (Ex: 381–400 nm, Em: 414–450 nm) and Live-or-Dye-positive cells (Ex: 543−566 nm, Em: 580−611 nm) using on a Tecan Spark Cyto (Tecan Group AG). Reference readings for background correction and detection of auto-fluorescence were taken at 414–450 nm prior to staining. Thereafter, wells were aspirated, the cells were incubated for 3 h with 90 µL culture medium (0.2% FCS) and 10 µL Cell Counting Kit-8 solution (CCK-8, MedChem Express #HY-K0301), and absorbance was measured at 1, 2, and 3h of incubation at 450 nm on a Tecan Spark Cyto to assess metabolic activity of the cells. Before drug administration, after the first medium exchange, 24 h after drug administration, and after fluorescence imaging cell confluence was assessed using the Tecan Spark Cyto, to account for changes in cell confluence due to drug administration and cell handling. The number of apoptotic cells, metabolic activity, and changes in cell confluence in response to drug treatment were all normalized to the vehicle control of each biological replicate individually.
# TLX [7] = target: T3, TLX (Homo sapiens, UniProt Q9Y466); assay: Gal4-hybrid reporter gene assay TLX; format: cell-based; details: selected test concentration (Figure 3)
# T3 construct: encoding the hinge region and the LBD of the canonical isoform of the respective human nuclear receptors; expressed in transfected cells; host or cells: HEK293T
# T3 sequence (Q9Y466 155-383 limits assumed): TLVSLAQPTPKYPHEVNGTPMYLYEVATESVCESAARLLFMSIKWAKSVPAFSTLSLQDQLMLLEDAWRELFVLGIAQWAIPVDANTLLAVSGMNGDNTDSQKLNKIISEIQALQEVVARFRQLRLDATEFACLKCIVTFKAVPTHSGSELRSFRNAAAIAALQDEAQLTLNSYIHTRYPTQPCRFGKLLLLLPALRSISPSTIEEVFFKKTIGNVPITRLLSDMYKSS
# Description: as §1
# TLX expression = details: cited from earlier work
# TLX LBD = details: ITC; cited from earlier work
# full-length TLX = details: reporter gene assay; cited from earlier work
# [8] = tested on: fructose-1,6-bisphosphatase 1 (FBP1); parameters: method as in PMID 33114319; details: HepG2 cells; cited from earlier work
# [9] = read-out: RXRγ cellular activity/potency
# [10] = reporter gene assay, read-out: RXRβ cellular activity/potency
# [11] = reporter gene assays, read-out: IC50 (counteracting TLX repressor activity)
compound,measurement,setting,value
CCCCCOc1cc2c(cc1-c1cc(/C=C/C(=O)O)ccc1O)C(C)(C)CCC2(C)C [compound 12],effect on bexarotene-induced RXR activation,"RXRα [1]; 1 µM, coincubation with bexarotene",robustly blocked
same,IC50,"RXRβ; reporter gene assay, no precise value reported, read-out: RXRb cellular activity/potency (antagonist)",~50 nM
"CC(C)NCC(O)COc1cccc2ccccc12 (stereo not shown) [compound 18, propranolol]",TLX-regulated SIRT1 and PTEN/TET3 expression,TLX-regulated genes; qRT-PCR,modulated
"CCN(CCCc1ccccc1)CCCc1ccccc1 [compound 3, alverine]",EC50,human insulin promoter,3500 to 6800 nM
same,effects on HNF4 activity,HNF4α,no effects
CC(C)c1c(CN(C)C(C)Cc2ccccc2)n(C)n(-c2ccccc2)c1=O (stereo not shown) [compound 14],Kd,TLX [2],6600 nM
same,EC50,TLX [3],9200 nM
"CC1=C2[C@H](/C=C(\C)C(=O)O)CC[C@@H](C)[C@H]2CC1 [compound 9, Valerenic acid]",RXRα activation,RXRα [1]; 10 µM,weak RXRα activation
same,RXRγ fold activation,RXRγ,4 fold act.
same,EC50,RXRγ; read-out: RXRγ EC50,43000 nM
same,RXRα fold activation,RXRα [4],9 fold act.
same,EC50,RXRα [4]; read-out: RXRα EC50,27000 nM
same,RXRβ fold activation,RXRβ,69 fold act.
same,EC50,"RXRβ; reporter gene assay, read-out: RXRβ EC50",5200 nM
"CC(Cc1cccc(C(F)(F)F)c1)NCCOC(=O)c1ccccc1 (stereo not shown) [compound 2, benfluorex]",EC50,human insulin promoter,24400 nM
same,effects on HNF4 activity,HNF4α,no effects
Cn1c(=O)[nH]c2nc[nH]c2c1=O [1-methylxantine],IC50,TLX [5]; [11],9000 nM
"Cn1c(=O)c2[nH]c(-c3ccccc3)nc2n(C)c1=O [compound 21, 8-Phenyl-theophylline]",selectivity over other nuclear receptors,nuclear receptors,selective over other nuclear receptors
same,Oil red O positive area (amount of fat),[6],no effect
same,fat droplet (particle) size,[6],no effect
same,cytotoxicity,COS-7 cells,non-toxic
same,TLX modulation,TLX [7],inverse agonism
O=C(O)[C@@H]1C[C@H]1c1nc(-c2ccccc2)c(-c2cc(C(F)(F)F)cc(C(F)(F)F)c2)o1 [compound 7],EC50,RXRγ; [9],4 nM
same,Oil red O positive area (amount of fat),[6],affected neither
same,fat droplet (particle) size,[6],affected neither
same,EC50,RXRα [4]; read-out: RXRα cellular activity/potency,5 nM
same,EC50,RXRβ; [10],1.4 nM
CCCCOc1cc(C(=O)Nc2cc(-n3cnc(C)c3)cc(C(F)(F)F)c2)c2ccccc2n1 [compound 19],EC50,TLX [5]; read-out: Gal4-TLX EC50,250 nM
same,IC50,"TLX [5]; reporter gene assay, read-out: IC50 (first value of cell)",250 nM
same,SIRT1 expression,TLX-regulated genes,induced SIRT1 expression
same,TLX expression levels,TLX expression,no effect
same,selectivity over other nuclear receptors,nuclear receptors,selective over other nuclear receptors
same,Oil red O positive area (amount of fat),[6],increased
same,fat droplet (particle) size,[6],increased
same,cytotoxicity,COS-7 cells,non-toxic
same,Kd,TLX LBD,500 nM
same,TLX modulation,TLX [7],TLX activation
same,EC50,full-length TLX,700 nM
"Cn1c(=O)c2[nH]c(-c3ccccc3Cl)nc2n(C)c1=O [compound 20, 8-(2-chlorophenyl)-theophylline]",IC50,TLX [5]; [11],500 nM
same,Kd,TLX LBD,800 nM
O=C(O)c1cc(-c2ccccc2)ccc1O [compound 4],expression of HNF4 target gene FBP1,[8],diminished expression

# — paper PMC7617459, “Comparative Evaluation and Profiling of Chemical Tools for the Nuclear Hormone Receptor Family 2” (ACS pharmacology & translational science, 2025)
